The values below are quoted from earlier work in patent US6699900B2, “Hydrophilic and lipophilic silibinin pro-forms” (priority 2001, dated 2004).

SMILES strings stand for the structures.

For this series the following is noted: Merck Index, Reference 8680.

With `COc1cc(C2Oc3cc([C@H]4Oc5cc(O)cc(O)c5C(=O)[C@@H]4O)ccc3OC2CO)ccc1O` (stereo partly shown) [silibinin], the “solubility in aqueous or lipophilic phases” value was “not readily soluble”.
